Measured values taken from US20200261479A1, “PROCESSES FOR THE PREPARATION OF AMORPHOUS TENOFOVIR ALAFENAMIDE HEMIFUMARATE AND A PREMIX THEREOF” (MYLAN LABORATORIES LIMITED, priority 2015, published 2020).

Experiments:
[1] = Storage stability of amorphous tenofovir alafenamide hemifumarate and premixes, PXRD pattern; format: physicochemical
Procedure: The amorphous form of tenofovir alafenamide hemifumarate of the present disclosure may be characterized by a PXRD pattern. Thus, the PXRD patterns of the amorphous form of tenofovir alafenamide hemifumarate were obtained on BRUKER D-8 Discover powder diffractometer equipped with goniometer of θ/2θ configuration and Lynx Eye detector. The Cu-anode X-ray tube was operated at 40 kV and 30 mA. The experiments were conducted over the 2θ range of 2.0°-50.0°, 0.030° step size and 0.4 seconds step time.
Thus, the PXRD patterns of several embodiments of the present disclosure were obtained on BRUKER D-8 Discover powder diffractometer equipped with goniometer of θ/2θ configuration and Lynx Eye detector. The Cu-anode X-ray tube was operated at 40 kV and 30 mA. The experiments were conducted over the 2θ range of 2.0°-50.0°, 0.030° step size and 0.4 seconds step time.

[2] = Storage stability of amorphous tenofovir alafenamide hemifumarate and premixes, HPLC purity
Procedure: As used herein, a compound or pharmaceutical composition is considered “stable” where the HPLC purity of the compound or premix changes by less than about 1% when stored at 5±3° C. and/or at 25° C./60% relative humidity (RH). In certain embodiments, the “stable” compound or premix is stored at 5±3° C. In other embodiments, the “stable” compound or premix is stored at 25° C./60% relative humidity (RH).
Further, the stability of certain embodiments of the premix of amorphous tenofovir alafenamide hemifumarate can be measured by PXRD and HPLC. Thus, HPLC analyses were also performed. HPLC separations were performed on a Waters Alliance 2695 HPLC system with UV detector. Data was collected and analyzed with Empower chromatography software or equivalent. The separation was performed on an X-Bridge Phenyl, 250×4.6 mm, 5 μm column with a mobile phase flow rate of 0.7 mL/min and injection volume of 10 μL. Separations were performed by gradient elution with mobile 1.75 mM tetrabutylammonium bisulfate (pH 2.0) in 5% THF (mobile phase A) and 70:30 acetonitrile:methanol (mobile phase B) as specified in the table below.
The column oven temp was 20° C. and UV detector was set to 260 nm. The purity of the premix was also measured by HPLC using similar conditions.

CC(C)OC(=O)[C@H](C)N[P@](=O)(CO[C@H](C)Cn1cnc2c(N)ncnc21)Oc1ccccc1 [tenofovir alafenamide hemifumarate]
PXRD ([1]; at 5 ± 3° C., 3 months): Stable
PXRD ([1]; at 5 ± 3° C., 6 months): Stable
PXRD ([1]; at 5 ± 3° C., Initial): Amorphous
PXRD ([1]; at 25° C./60% RH, 3 months): Stable
PXRD ([1]; at 25° C./60% RH, 6 months): Stable
PXRD ([1]; at 25° C./60% RH, Initial): Amorphous
HPLC purity (%) ([2]; at 5 ± 3° C., 3 months): 99.45%
HPLC purity (%) ([2]; at 5 ± 3° C., 6 months): 99.54%
HPLC purity (%) ([2]; at 5 ± 3° C., Initial): 99.53%
HPLC purity (%) ([2]; at 25° C./60% RH, 3 months): 99.36%
HPLC purity (%) ([2]; at 25° C./60% RH, 6 months): 99.48%
HPLC purity (%) ([2]; at 25° C./60% RH, Initial): 99.53%
degradation or change in PXRD pattern on storage ([2]; stored at 5±3° C. and at 25° C./60% RH, 3 and 6 months, HPLC and PXRD): no significant degradation or change in PXRD pattern
